Experimental data taken from the NIST ThermoML archive (doi:10.1021/je500669y).
Numbers after ± are expanded uncertainties.

Assay: xn = mol fraction of the nth substance listed
Conditions: Gas, isochoric method

F/C=C/C(F)(F)F [trans-1,3,3,3-tetrafluoropropene] + N#N
Conditions | specific volume [m3/kg]
263.05 K, 383.1 kPa, x2 = 0.75 | 0.114 ± 0.01
263.16 K, 622.6 kPa, x2 = 0.746 | 0.069 ± 0.01
273.12 K, 398.4 kPa, x2 = 0.75 | 0.114 ± 0.01
273.13 K, 648.5 kPa, x2 = 0.746 | 0.069 ± 0.01
273.19 K, 464.3 kPa, x2 = 0.5 | 0.066 ± 0.01
283.07 K, 291.8 kPa, x2 = 0.495 | 0.11 ± 0.01
283.1 K, 413.5 kPa, x2 = 0.75 | 0.114 ± 0.01
283.1 K, 673.7 kPa, x2 = 0.746 | 0.069 ± 0.01
283.12 K, 485.7 kPa, x2 = 0.5 | 0.066 ± 0.01
293.08 K, 302.8 kPa, x2 = 0.495 | 0.11 ± 0.01
293.09 K, 699 kPa, x2 = 0.746 | 0.069 ± 0.01
293.11 K, 506.5 kPa, x2 = 0.5 | 0.066 ± 0.01
293.13 K, 428.7 kPa, x2 = 0.75 | 0.114 ± 0.01
303.05 K, 313.9 kPa, x2 = 0.495 | 0.11 ± 0.01
303.16 K, 525.9 kPa, x2 = 0.5 | 0.066 ± 0.01
303.17 K, 443.8 kPa, x2 = 0.75 | 0.114 ± 0.01
303.18 K, 196.3 kPa, x2 = 0.254 | 0.136 ± 0.01
303.19 K, 381.3 kPa, x2 = 0.25 | 0.069 ± 0.01
303.35 K, 724.8 kPa, x2 = 0.746 | 0.069 ± 0.01
313.14 K, 203.2 kPa, x2 = 0.254 | 0.136 ± 0.01
313.17 K, 396.1 kPa, x2 = 0.25 | 0.069 ± 0.01
313.17 K, 545.2 kPa, x2 = 0.5 | 0.066 ± 0.01
313.18 K, 324.5 kPa, x2 = 0.495 | 0.11 ± 0.01
313.18 K, 458.8 kPa, x2 = 0.75 | 0.114 ± 0.01
313.2 K, 749.1 kPa, x2 = 0.746 | 0.069 ± 0.01
323.13 K, 209.9 kPa, x2 = 0.254 | 0.136 ± 0.01
323.15 K, 410.2 kPa, x2 = 0.25 | 0.069 ± 0.01
323.16 K, 473.2 kPa, x2 = 0.75 | 0.114 ± 0.01
323.17 K, 335.3 kPa, x2 = 0.495 | 0.11 ± 0.01
323.17 K, 564 kPa, x2 = 0.5 | 0.066 ± 0.01
323.17 K, 773.9 kPa, x2 = 0.746 | 0.069 ± 0.01
333.16 K, 423.9 kPa, x2 = 0.25 | 0.069 ± 0.01
333.17 K, 582.8 kPa, x2 = 0.5 | 0.066 ± 0.01
333.17 K, 799.4 kPa, x2 = 0.746 | 0.069 ± 0.01
333.18 K, 346.1 kPa, x2 = 0.495 | 0.11 ± 0.01
333.19 K, 488.7 kPa, x2 = 0.75 | 0.114 ± 0.01
333.34 K, 216.7 kPa, x2 = 0.254 | 0.136 ± 0.01
343.11 K, 601.4 kPa, x2 = 0.5 | 0.066 ± 0.01
343.12 K, 223.3 kPa, x2 = 0.254 | 0.136 ± 0.01
343.12 K, 356.8 kPa, x2 = 0.495 | 0.11 ± 0.01
343.13 K, 823.9 kPa, x2 = 0.746 | 0.069 ± 0.01
343.14 K, 438.2 kPa, x2 = 0.25 | 0.069 ± 0.01
343.14 K, 503.4 kPa, x2 = 0.75 | 0.114 ± 0.01
353.05 K, 451.9 kPa, x2 = 0.25 | 0.069 ± 0.01
353.08 K, 229.5 kPa, x2 = 0.254 | 0.136 ± 0.01
353.1 K, 619.5 kPa, x2 = 0.5 | 0.066 ± 0.01
353.11 K, 367.5 kPa, x2 = 0.495 | 0.111 ± 0.01
353.13 K, 518.1 kPa, x2 = 0.75 | 0.114 ± 0.01
353.13 K, 848.5 kPa, x2 = 0.746 | 0.069 ± 0.01
363.06 K, 236.3 kPa, x2 = 0.254 | 0.136 ± 0.01
363.1 K, 378.2 kPa, x2 = 0.495 | 0.111 ± 0.01
363.1 K, 465.8 kPa, x2 = 0.25 | 0.069 ± 0.01
363.1 K, 872.9 kPa, x2 = 0.746 | 0.069 ± 0.01
363.12 K, 638.7 kPa, x2 = 0.5 | 0.066 ± 0.01
363.25 K, 533.3 kPa, x2 = 0.75 | 0.114 ± 0.01
373 K, 242.6 kPa, x2 = 0.254 | 0.136 ± 0.01
373.07 K, 547.3 kPa, x2 = 0.75 | 0.114 ± 0.01
373.09 K, 389.2 kPa, x2 = 0.495 | 0.111 ± 0.01
373.09 K, 657 kPa, x2 = 0.5 | 0.066 ± 0.01
373.1 K, 479.5 kPa, x2 = 0.25 | 0.069 ± 0.01
373.16 K, 897.7 kPa, x2 = 0.746 | 0.069 ± 0.01
383.05 K, 675.5 kPa, x2 = 0.5 | 0.066 ± 0.01
383.06 K, 494.4 kPa, x2 = 0.25 | 0.069 ± 0.01
383.08 K, 922.8 kPa, x2 = 0.746 | 0.069 ± 0.01
383.09 K, 399.9 kPa, x2 = 0.495 | 0.111 ± 0.01
383.09 K, 562.6 kPa, x2 = 0.75 | 0.114 ± 0.01
383.26 K, 249.6 kPa, x2 = 0.254 | 0.136 ± 0.01
393.05 K, 508.1 kPa, x2 = 0.25 | 0.069 ± 0.01
393.06 K, 577.5 kPa, x2 = 0.75 | 0.114 ± 0.01
393.06 K, 694 kPa, x2 = 0.5 | 0.066 ± 0.01
393.08 K, 410.6 kPa, x2 = 0.495 | 0.111 ± 0.01
393.13 K, 947.3 kPa, x2 = 0.746 | 0.069 ± 0.01
393.14 K, 256.3 kPa, x2 = 0.254 | 0.136 ± 0.01
402.99 K, 421.1 kPa, x2 = 0.495 | 0.111 ± 0.01
403.04 K, 521.2 kPa, x2 = 0.25 | 0.069 ± 0.01
403.04 K, 592.5 kPa, x2 = 0.75 | 0.114 ± 0.01
403.05 K, 712.5 kPa, x2 = 0.5 | 0.066 ± 0.01
403.1 K, 971.7 kPa, x2 = 0.746 | 0.069 ± 0.01
403.14 K, 262.9 kPa, x2 = 0.254 | 0.137 ± 0.01
413 K, 432.1 kPa, x2 = 0.495 | 0.111 ± 0.01
413.01 K, 535.2 kPa, x2 = 0.25 | 0.069 ± 0.01
413.04 K, 995.8 kPa, x2 = 0.746 | 0.069 ± 0.01
413.06 K, 607.4 kPa, x2 = 0.75 | 0.114 ± 0.01
413.1 K, 731 kPa, x2 = 0.5 | 0.066 ± 0.01
413.13 K, 269.4 kPa, x2 = 0.254 | 0.137 ± 0.01
